# Assay results from ChEMBL document CHEMBL1133286, “5-HETE congeners as modulators of cell proliferation” (2000).
# Test system: LNCaP
# Test: Evaluated for its growth enhancement or mitogenic activity using LNCaP prostate cultures.
# Format: functional, cell-based
# Conditions: Homo sapiens, Prostate gland
row,SMILES,Control
1,CCCCCCCC/C=C\CCCCCCCC(=O)NCCO,No effect

# Test system: LNCaP
# Test: Evaluated for its growth enhancement or mitogenic activity using LNCaP prostate cultures
# Format: functional, Homo sapiens, Prostate gland
# Conditions: not given
row,SMILES,Control
1,CCCCC/C=C\C/C=C\C/C=C\C/C=C\CCCC(=O)NCCO [ANANDAMIDE],112%
2,CCCCC/C=C\C/C=C\C/C=C\C=C\C(N)CCCC(=O)O (stereo not given),116%
3,CCCCC/C=C\C/C=C\C/C=C\C=C\C(O)CCCC(=O)NC (stereo not given),108%
4,CCCCC/C=C\C/C=C\C/C=C\C=C\C1CCCC(=O)N1C (stereo not given),131%
5,CCCCC/C=C\C/C=C\C/C=C\C=C\C(O)CCCC(=O)O (stereo not given),116%
6,CCCCC/C=C\C/C=C\C/C=C\C=C\C(O)CCCC(=O)NO (stereo not given),3%
7,CCCCC/C=C\C/C=C\C/C=C\C=C\C1CCCC(=O)N1 (stereo not given),121%
8,CCCCC/C=C\C/C=C\C/C=C\C=C\C(O)CCCC(N)=O (stereo not given),108%
9,CCCCC/C=C\C/C=C\C/C=C\C=C\C(O)CCCC(=O)NN (stereo not given),60%
10,CCCCC/C=C\C/C=C\C/C=C\C=C\C(O)CCCC(=O)NOC (stereo not given),133%
11,CCCCC/C=C\C/C=C\C/C=C\C=C\C(O)CCCC(=O)NCCCN (stereo not given),116%
12,CCCCC/C=C\C/C=C\C/C=C\C=C\C(O)CCCC(=O)N1CCOCC1 (stereo not given),106%
13,CCCCC/C=C\C/C=C\C/C=C\C=C\C(O)CCCC(=O)NCCO (stereo not given),125%
14,CCCCC/C=C\C/C=C\C/C=C\C=C\C(O)CCCC(=O)N(C)C (stereo not given),138%
15,CCCCC/C=C\C/C=C\C/C=C\C=C\C(O)CCCC(=O)OC (stereo not given),111%
16,CCCCC/C=C\C/C=C\C/C=C\C=C\C(O)CCCC(=O)N(C)OC (stereo not given),115%
17,CCCCC/C=C\C/C=C\C/C=C\C=C\C(O)CCCC(=O)c1cnccn1 (stereo not given),113%
18,CCCCC/C=C\C/C=C\C/C=C\C=C\C(O)CCCC(=O)N1CCCCC1 (stereo not given),123%
19,CCCCC/C=C\C/C=C\C/C=C\C=C\C(CCCC(=O)O)NC (stereo not given),125%
